{"source": "patent US20210371413A1", "about": "“POLYCYCLIC AMIDES AS CYTOTOXIC AGENTS” (FEMTOGENIX LIMITED, priority 2018, published 2021)", "key": {"[1]": {"system": "LIM1215", "test": "In vitro cell-killing, MTT assay, LIM1215", "type": "cell-based", "conditions": "LIM1215, 72 h, read-out: In vitro cell-killing (IC50), Cytotoxicity (72 hours)", "description": "(§1) Tumor cell lines were maintained in RPMI1640 medium supplemented with 10% heat-inactivated fetal bovine serum, 2 mM L-glutamine and 1 mM sodium pyruvate. 1800 cells per well were seeded in a volume of 180 μl in a 96-well flat bottom polystyrene plate. The cells were allowed to adhere overnight at 37° C. in a CO2 incubator. Ligands were initially formulated in DMSO, and stocks stored at −80° C. They were then further formulated at lox concentration in RPMI1640 medium. 20 ul of diluted samples were added into each treatment well. On each plate, blank wells with no cells, and untreated wells containing cells, were included. Plates were then cultured at 37° C. in a CO2 incubator for 72 hrs. Cytotoxicity was evaluated using a tetrazolium salt-based assay, the MTT assay. After 72 hours, the supernatant was removed from each well and 200 μl of a sterile filtered 500 μg/ml MTT solution in water added to each well. […] The plate was then read on a plate reader at 540 nm, and percentage cell survival calculated as follows: ((mean absorbance treated wells at concentration x−mean absorbance blank wells)+(mean absorbance untreated wells at concentration x−mean absorbance blank wells))×100. Data were plotted as concentration in nM vs. % cell survival in Microsoft Excel, and IC50 values (concentration where cell survival is reduced by a half) were determined from the graph."}, "[2]": {"system": "SW620", "test": "In vitro cell-killing, MTT assay, SW620", "type": "cell-based", "conditions": "Homo sapiens, SW-620, 72 h, read-out: In vitro cell-killing (IC50), Cytotoxicity (72 hours)", "description": "as §1"}, "[3]": {"system": "DS3 DNA fragment", "test": "DNA footprinting, DS3 DNA fragment", "type": "binding", "description": "(§2) The DNA sequence selectivity profile of the molecules was investigated using a modification of the previously established DNA footprinting assay. Following an overnight incubation of the ligand-DNA complexes, the mixture was mixed with strand separation buffer containing 10 mM EDTA, 10 mM NaOH, 0.1% bromophenol blue, 80% formamide and incubated at 100° C. for 3 min. The mixture was then immediately cooled on ice and run on an 8% denaturing gel.\n(§3) The preparation of the DS3 DNA fragment (FIG. 5) and the “D” DNA fragment (FIG. 6) has been previously described. Briefly, the sequence which had been cloned into the BamHI site of pUC18 was obtained by cutting with HindIII and EcoRI. Radiolabelled DNA fragments were prepared by filling in the 3′-end of the HindIII site with [α-^32P]dATP using Klenow DNA polymerase (exo-).\nThe radiolabelled DNA fragment was separated from the remainder of the plasmid DNA on a 6% non-denaturing polyacrylamide gel. The gel (20 cm long, 0.3 mm thick) was run at 400 V in 1×TBE running buffer for about 1-2 h, until the bromophenol blue had run most of the way down the gel. The glass plates were separated and the position of the labelled DNA fragment was established by short (1 min) exposure to an X-ray film. The relevant band was then cut from the gel and the radiolabelled DNA eluted by adding 300 μL 10 mM Tris-HCl, pH 7.5 containing 0.1 mM EDTA and gently agitating overnight at room temperature. The eluted DNA was finally precipitated with ethanol and re-suspended in a suitable volume of 10 mM Tris-HCl, pH 7.5 containing 0.1 mM EDTA buffer so as to give at least 10 counts per second/μL on a hand-held Geiger counter. […]\n(§4) Footprinting reactions were performed as previously described using the DNA fragments DS3, which contains tracts of AT/GC bases; and using the “D” DNA fragments which represents a random DNA sequence. […] After gel purification, the radiolabelled DNA was dissolved in 10 mM Tris-HCl pH 7.5 containing 0.1 mM EDTA, at a concentration of about 10 c.p.s per μL as determined on a hand held Geiger counter. […]"}, "[4]": {"system": "\"D\" DNA fragment", "test": "DNA footprinting, random \"D\" DNA fragment", "type": "binding", "conditions": "random \"D\" DNA sequence", "description": "as §2, §3\nThe radiolabelled DNA fragment was separated from the remainder of the plasmid DNA on a 6% non-denaturing polyacrylamide gel. […]\nas §4"}}}
{"smiles": "COc1cc2c(cc1OCCCC(=O)Nc1cc(C(=O)Nc3ccc(-c4cc(C(=O)Nc5ccc(N)cc5)n(C)c4)cc3)n(C)c1)NC[C@@H]1CCCCN1C2=O", "note": "[Compound 16, (S)—N-(4-Aminophenyl)-4-(4-(4-(4-((2-methoxy-12-oxo-5,6,6a,7,8,9,10,12-octahydrobenzo[e]pyrido[1,2-a][1,4]diazepin-3-yl)oxy)butanamido)-1-methyl-1H-pyrrole-2-carboxamido)phenyl)-1-methyl-1H-pyrrole-2-carboxamide]", "values": [{"measurement": "IC50", "setting": "[1]", "result": 0.072, "unit": "µM"}, {"measurement": "IC50", "setting": "[2]", "result": 0.079, "unit": "µM"}, {"measurement": "DNA binding pattern (footprint)", "setting": "[3]; DS3 DNA sequence", "result": "predominantly target AT rich regions"}, {"measurement": "DNA-binding site sequence (X any base, W A or T)", "setting": "[3]; from DNA footprinting, fragment not stated", "result": "XXXXWWW"}, {"measurement": "preferred binding sites (footprint)", "setting": "[4]", "result": "only three preferred sites were observed during this experiment, and all are primarily AT-rich"}]}
